System: human HL60 cells
Test: SWATH-MS proteomics, differential protein representation, akirin2 KO vs WT HL60 cells
Type: cell-based
Description: Total proteins were extracted from WT and akirin2 KO HL60 cells using the AllPrep DNA/RNA/Protein Mini Kit (Qiagen) and protein concentration was determined using the BCA Protein Assay with BSA (Sigma–Aldrich) as standard. Protein extracts (150 µg per sample, n=3 biological replicates) from each WT and KO cells were trypsin digested using the FASP Protein Digestion Kit (Expedeon Ltd., Abcam, Cambridge, U.K.) and sequencing grade trypsin (Promega, Madison, WI, U.S.A.) following manufacturer’s recommendations. The resulting peptides were finally desalted on to OMIX Pipette tips C18 (Agilent Technologies, Santa Clara, CA, U.S.A.), dried down and stored at −20 °C until mass spectrometry analysis. […] Three micrograms of each protein digest from the three biological replicates of WT and akirin2 KO HL60 cells were used for the generation of the reference spectral ion library as part of the SWATH-MS analysis.
Peptides were eluted in a 120-min gradient from 5 to 30% solvent B in solvent A followed by 15-min gradient from 30 to 60% solvent B in solvent A (solvent A: 0.1% formic acid in water, solvent B: 0.1% formic acid in acetonitrile) and directly injected into the mass spectrometer for analysis. For IDA experiments, the mass spectrometer was set to scanning full spectra (350–1400 m/z) using 250 ms accumulation time per spectrum, followed by up to 50 MS/MS scans (100–1500 m/z). Candidate ions with a charge state between +2 and +5 counts per second above a minimum threshold of 100 were isolated for fragmentation. One MS/MS spectrum was collected for 100 ms, before adding those precursor ions to the exclusion list for 15 s (mass spectrometer operated by Analyst TF 1.6, AB Sciex). Dynamic background subtraction was turned off. MS/MS analyses were recorded in high-sensitivity mode with rolling collision energy on and a collision energy spread of 5. For SWATH quantitative analysis, six independent samples (three replicates from WT and akirin2 KO HL60 cells, 5 µg each) were subjected to the cyclic DIA of mass spectra using the SWATH variable windows calculator (V 1.0, AB Sciex) and the SWATH acquisition method editor (AB Sciex), similar to established methods. […] For these experiments, a 50-ms survey scan (350–1400 m/z) was acquired at the beginning of each cycle, and SWATH–MS/MS spectra were collected from 100–1500 m/z for 70 ms at high-sensitivity mode, resulting in a cycle time of 3.6 s. Collision energy for each window was determined according to the calculation for a charge +2 ion-centered upon the window with a collision energy spread of 15. To create a spectral library of all the detectable peptides in the samples, the IDA MS raw files were combined and subjected to database search in unison using ProteinPilot software v. 5.0.1 (AB Sciex) with the Paragon algorithm. […] The detected protein threshold was set at 0.05. An independent false discovery rate (FDR) analysis, using the target–decoy approach provided by Protein Pilot (AB Sciex; https://sciex.com/products/software/proteinpilot-software), was used to assess the quality of identifications. Positive identifications were considered when identified proteins reached 1% of global FDR. […] Global normalization was performed according to the Total Area Sums (TAS) of all detected proteins in the samples. […] Heatmaps were prepared using the Heatmapper (http://www.heatmapper.ca/expression/) with average linkage and Euclidean distance measurement method.

[1] = SWATH-MS, akirin2 KO vs WT HL60 cells, over-represented in KO
[2] = akirin2 KO vs WT HL60 cells, sheet "Over-represented in KO"
[3] = SWATH-MS, akirin2 KO vs WT HL60 cells, under-represented in KO
[4] = KO vs WT, akirin2 KO vs WT HL60 cells, sheet "Under-represented in KO"
[5] = akirin2 KO vs WT HL60 cells, sheet "Under-represented in KO"
[6] = SWATH-MS, akirin2 KO vs WT HL60 cells, sheet "Under-represented in KO"
[7] = KO vs WT HL60 cells, sheet "Under-represented in KO"
[8] = Over-represented in KO, KO vs WT HL60 cells

## CD44 antigen
[1]
  Fold Change: 2.131
  Log (Fold Change): 0.3287

## Cathepsin D
[1]
  Fold Change: 2.358
  Log (Fold Change): 0.3725

## Chitinase-3-like protein 1
[1]
  Fold Change: 1.904
  Log (Fold Change): 0.2797

## Deoxynucleoside triphosphate triphosphohydrolase SAMHD1
[1]
  Fold Change: 1.851
  Log (Fold Change): 0.2674

## Eosinophil peroxidase
[1]
  Fold Change: 5.162
  Log (Fold Change): 0.7128

## Galectin-1
[1]
  Fold Change: 1.707
  Log (Fold Change): 0.2322

## Galectin-10
[1]
  Fold Change: 4.451
  Log (Fold Change): 0.6485

## Heat shock 70 kDa protein 1B
[1]
  Fold Change: 1.868
  Log (Fold Change): 0.2713

## Transferrin receptor protein 1
[1]
  Fold Change: 3.145
  Log (Fold Change): 0.4976

## Vimentin
[1]
  Fold Change: 3.958
  Log (Fold Change): 0.5975

## sp¦E9PAV3¦NACAM_HUMAN
[2]
  Fold Change: 1.243
  Log (Fold Change): 0.09445

## sp¦E9PRG8¦CK098_HUMAN
[2]
  Fold Change: 1.224
  Log (Fold Change): 0.0879

## sp¦O00148¦DX39A_HUMAN
[3]
  Fold Change: 0.7315
  Log (Fold Change): -0.1358

## sp¦O00231¦PSD11_HUMAN
[2]
  Fold Change: 1.117
  Log (Fold Change): 0.04806

## sp¦O00264¦PGRC1_HUMAN
[4]
  Fold Change: 0.6168
  Log (Fold Change): -0.2099

## sp¦O14579¦COPE_HUMAN
[2]
  Fold Change: 1.2285
  Log (Fold Change): 0.08937

## sp¦O43148¦MCES_HUMAN
[5]
  Fold Change: 0.671
  Log (Fold Change): -0.1733

## sp¦O43447¦PPIH_HUMAN
[2]
  Fold Change: 1.22
  Log (Fold Change): 0.08634

## sp¦O43681¦GET3_HUMAN
[6]
  Fold Change: 0.7665
  Log (Fold Change): -0.1155

## sp¦O43813¦LANC1_HUMAN
[3]
  Fold Change: 0.7366
  Log (Fold Change): -0.1328

## sp¦O75874¦IDHC_HUMAN
[1]
  Fold Change: 1.681
  Log (Fold Change): 0.2255

## sp¦O94804¦STK10_HUMAN
[7]
  Fold Change: 0.5498
  Log (Fold Change): -0.2598

## sp¦O95758¦PTBP3_HUMAN
[3]
  Fold Change: 0.7281
  Log (Fold Change): -0.1378

## sp¦P0CG38¦POTEI_HUMAN
[6]
  Fold Change: 0.7517
  Log (Fold Change): -0.1239

## sp¦P00367¦DHE3_HUMAN
[5]
  Fold Change: 0.6801
  Log (Fold Change): -0.1674

## sp¦P02792¦FRIL_HUMAN
[5]
  Fold Change: 0.2798
  Log (Fold Change): -0.5531

## sp¦P04406¦G3P_HUMAN
[8]
  Fold Change: 1.369
  Log (Fold Change): 0.1364

## sp¦P05556¦ITB1_HUMAN
[5]
  Fold Change: 0.257
  Log (Fold Change): -0.5901

## sp¦P07237¦PDIA1_HUMAN
[8]
  Fold Change: 1.346
  Log (Fold Change): 0.1292

## sp¦P08238¦HS90B_HUMAN
[2]
  Fold Change: 1.209
  Log (Fold Change): 0.08231

## sp¦P08621¦RU17_HUMAN
[5]
  Fold Change: 0.6829
  Log (Fold Change): -0.1657

## sp¦P09622¦DLDH_HUMAN
[7]
  Fold Change: 0.516
  Log (Fold Change): -0.2873

## sp¦P10155¦RO60_HUMAN
[6]
  Fold Change: 0.7678
  Log (Fold Change): -0.1147

## sp¦P11142¦HSP7C_HUMAN
[1]
  Fold Change: 1.579
  Log (Fold Change): 0.1983

## sp¦P12268¦IMDH2_HUMAN
[3]
  Fold Change: 0.7306
  Log (Fold Change): -0.1363

## sp¦P12270¦TPR_HUMAN
[5]
  Fold Change: 0.6414
  Log (Fold Change): -0.1929

## sp¦P13861¦KAP2_HUMAN
[2]
  Fold Change: 1.201
  Log (Fold Change): 0.07946

## sp¦P14618¦KPYM_HUMAN
[1]
  Fold Change: 1.553
  Log (Fold Change): 0.1913

## sp¦P15531¦NDKA_HUMAN
[2]
  Fold Change: 1.204
  Log (Fold Change): 0.08072

## sp¦P23284¦PPIB_HUMAN
[8]
  Fold Change: 1.275
  Log (Fold Change): 0.1054

## sp¦P25786¦PSA1_HUMAN
[8]
  Fold Change: 1.271
  Log (Fold Change): 0.1042

## sp¦P28070¦PSB4_HUMAN
[6]
  Fold Change: 0.7608
  Log (Fold Change): -0.1188

## sp¦P29350¦PTN6_HUMAN
[3]
  Fold Change: 0.7017
  Log (Fold Change): -0.1538

## sp¦P31040¦SDHA_HUMAN
[7]
  Fold Change: 0.5299
  Log (Fold Change): -0.2758

## sp¦P31689¦DNJA1_HUMAN
[8]
  Fold Change: 1.309
  Log (Fold Change): 0.117

## sp¦P35250¦RFC2_HUMAN
[6]
  Fold Change: 0.7882
  Log (Fold Change): -0.1034

## sp¦P35579¦MYH9_HUMAN
[5]
  Fold Change: 0.3518
  Log (Fold Change): -0.4538

## sp¦P36404¦ARL2_HUMAN
[3]
  Fold Change: 0.6935
  Log (Fold Change): -0.1589

## sp¦P38646¦GRP75_HUMAN
[3]
  Fold Change: 0.7142
  Log (Fold Change): -0.1462

## sp¦P40937¦RFC5_HUMAN
[7]
  Fold Change: 0.4492
  Log (Fold Change): -0.3475

## sp¦P46013¦KI67_HUMAN
[2]
  Fold Change: 1.204
  Log (Fold Change): 0.08052

## sp¦P49137¦MAPK2_HUMAN
[8]
  Fold Change: 1.268
  Log (Fold Change): 0.1031

## sp¦P53007¦TXTP_HUMAN
[5]
  Fold Change: 0.3964
  Log (Fold Change): -0.4018

## sp¦P54709¦AT1B3_HUMAN
[3]
  Fold Change: 0.7448
  Log (Fold Change): -0.128

## sp¦P55072¦TERA_HUMAN
[2]
  Fold Change: 1.115
  Log (Fold Change): 0.04741

## sp¦P55809¦SCOT1_HUMAN
[5]
  Fold Change: 0.6768
  Log (Fold Change): -0.1696

## sp¦P56545¦CTBP2_HUMAN
[5]
  Fold Change: 0.655
  Log (Fold Change): -0.1838

## sp¦P60953¦CDC42_HUMAN
[3]
  Fold Change: 0.7034
  Log (Fold Change): -0.1528

## sp¦P61604¦CH10_HUMAN
[3]
  Fold Change: 0.7263
  Log (Fold Change): -0.1389

## sp¦P78527¦PRKDC_HUMAN
[5]
  Fold Change: 0.4323
  Log (Fold Change): -0.3642

## sp¦P84077¦ARF1_HUMAN
[5]
  Fold Change: 0.682
  Log (Fold Change): -0.1662

## sp¦Q5T4S7¦UBR4_HUMAN
[5]
  Fold Change: 0.241
  Log (Fold Change): -0.6179

## sp¦Q6P2Q9¦PRP8_HUMAN
[3]
  Fold Change: 0.7423
  Log (Fold Change): -0.1294

## sp¦Q7Z6Z7¦HUWE1_HUMAN
[7]
  Fold Change: 0.5255
  Log (Fold Change): -0.2794

## sp¦Q8NE71¦ABCF1_HUMAN
[4]
  Fold Change: 0.6253
  Log (Fold Change): -0.2039

## sp¦Q8NF50¦DOCK8_HUMAN
[5]
  Fold Change: 0.4042
  Log (Fold Change): -0.3934

## sp¦Q9BRF8¦CPPED_HUMAN
[4]
  Fold Change: 0.571
  Log (Fold Change): -0.2434

## sp¦Q9H0U4¦RAB1B_HUMAN
[3]
  Fold Change: 0.704
  Log (Fold Change): -0.1524

## sp¦Q9NR31¦SAR1A_HUMAN
[5]
  Fold Change: 0.4316
  Log (Fold Change): -0.3649

## sp¦Q9P287¦BCCIP_HUMAN
[8]
  Fold Change: 1.299
  Log (Fold Change): 0.1134

## sp¦Q9UNS2¦CSN3_HUMAN
[3]
  Fold Change: 0.6926
  Log (Fold Change): -0.1595

## sp¦Q9Y4W6¦AFG32_HUMAN
[4]
  Fold Change: 0.6186
  Log (Fold Change): -0.2086

## sp¦Q9Y5B9¦SP16H_HUMAN
[3]
  Fold Change: 0.7335
  Log (Fold Change): -0.1346

## sp¦Q9Y266¦NUDC_HUMAN
[8]
  Fold Change: 1.364
  Log (Fold Change): 0.135

## sp¦Q9Y490¦TLN1_HUMAN
[8]
  Fold Change: 1.355
  Log (Fold Change): 0.1319

## sp¦Q86UX7¦URP2_HUMAN
[6]
  Fold Change: 0.7476
  Log (Fold Change): -0.1263

## sp¦Q96A72¦MGN2_HUMAN
[5]
  Fold Change: 0.6271
  Log (Fold Change): -0.2026

## sp¦Q01469¦FABP5_HUMAN
[1]
  Fold Change: 1.478
  Log (Fold Change): 0.1698
